The record followed here is patent publication US4108857A, “Imidazolylmethyl methanobenzazocines” (Sterling Drug Inc., priority 1977, dated 1978).

SMILES strings stand for the structures. Converted amounts (≈) assume the structure as drawn. Read-outs that look alike come from different tables or passages of the source.

Data set [1] in a line: solubility in water or aqueous acid.
Data set [2] concerns maximal pentylenetetrazol seizures. Put plainly: anti-maximal pentylenetetrazol seizure test in mice. In kind it is in vivo. The note with it: for ED50: Mus musculus.
The next data set in a line: pH of solution. It is filed as physicochemical.
For data set [3], the system named is maximal electroshock seizures. Put plainly: anti-maximal electroshock seizure test in mice. It is filed as in vivo. The conditions noted are these: for ED50: Mus musculus. The method, then:
The preferred species of this invention, i.e. the compounds having in free base form Formula II, are useful as analgesic agents administered orally or parenterally to humans. […] In the anti-maximal electroshock seizure test, the compounds were administered intraperitoneally or perorally 30 or 90 minutes prior to the application of 50 milliamperes of alternating current through corneal electrodes. Shock duration was 0.3 second. The criterion for anticonvulsant activity was the absence of the tonic hind leg extensor component of the seizure. In the anti-maximal pentylenetetrazol seizure test, the compounds were given intraperitoneally 30 or 90 minutes prior to the rapid intravenous injection of 50 mg. per kg. of pentylenetetrazol. Failure to display tonic hind leg extensor seizures was again the criterion for drug action. Representative results, expressed as ED50 (mg./kg.), which were obtained with my new compounds in these two tests are as follows: […]

Data set [4] in a line: solubility in 95 percent ethyl alcohol. The conditions noted are these: for solubility: 95% ethanol, organic solvent or mixture.
A short description of data set [5]: precipitation on diluting ethyl alcohol solution with four volumes of water. It is filed as physicochemical. The note with it: 5 percent (w/v) solution in 95 percent ethyl alcohol.
Another data set has as its system monkeys. Put plainly: toxicology study in monkeys (oral, daily for 5 days). It is filed as in vivo. The procedure: (§1) In a toxicology study, monkeys were medicated orally with 5 mg./kg. and 25 mg./kg. of the product of Example 1A each day for 5 days. […] There was considerable variability among the monkeys in the magnitude of the response. Symptoms lasted 2 to 5 hours. […] Blood SGO-T, alkaline phosphatase, and BUN were all normal.

Data set [6] deals with minimal pentylenetetrazol seizures. The experiment in a line: anticonvulsant test against minimal pentylenetetrazol seizures. The conditions noted are these: Mus musculus, oral, pentylenetetrazol 32.5 mg./kg. intravenously. It is filed as in vivo, mice. The procedure: In anticonvulsant studies, against minimal pentylenetetrazol seizures, wherein the dose of pentylenetetrazol was only 32.5 mg./kg. (intravenously) and the ensuing convulsions were clonic, without a tonic hind leg extensor component, the oral ED50 values were: 30 minutes post-medication, 15 ± 4 mg./kg.; 90 minutes post-medication, 37 ± 6 mg./kg.

Data set [7] relates to mice. Put plainly: inclined screen test in mice (skeletal muscle relaxation). It is filed as in vivo. The conditions noted are these: for ED50: Mus musculus.
A short description of data set [8]: precipitation on gradual pH adjustment of the aqueous solution. It is filed as physicochemical. The note with it: for pH at which a precipitate formed: addition of N/10 sodium hydroxide solution to aqueous solution of hydrochloride.
Another data set can be described thus: acute toxicity, rat. The conditions noted are these: in vivo; for LD50 at 168 h: 7 day. The procedure: as §1
In data set [9] the test system is mice. The experiment in a line: diuresis in mice. It is filed as in vivo. The conditions noted are these: 12.5 mg./kg. and 25 mg./kg. i.p.
Data set [10] concerns mice. Put plainly: psychomotor activity studies in mice. It is filed as in vivo.
Another data set deals with humans. The experiment in a line: analgesic use in humans. It is filed as in vivo. The conditions noted are these: for psychotomimetic effects in humans: analgesically effective doses. The procedure:
For example, administered orally, the effective dosage of the racemic cis form of this compound in humans has been determined to be about 0.1 to 0.5 mg. of drug per kg. of body weight per day, at 5-25 mg. per dose; preferably about 0.2 to 0.4 mg./kg./day, for instance a total of […] at 20 mg./dose.

Another data set is described as follows: acute toxicity, mouse. The conditions noted are these: in vivo; for LD50 at 168 h: 7 day. The procedure: as §1
The mark [11] stands for this setting: one entry spanning PO 30' and 90'.
Setting [12] is: 5 mg./kg. orally each day for 5 days.
[13] abbreviates: iv, I.V., read-out: LD50 ± s.e.

In the case of `CC1[C@@H]2Cc3ccccc3[C@@]1(C)CCN2CC1CCC1` (mixture of isomers) [Example 4, racemic 1,2,3,4,5,6-hexahydro-3-cyclobutylmethyl-cis-6,11-dimethyl-2,6-methano-3-benzazocine], the “solubility of hydrochloride in water” value in data set [1] (hydrochloride) is reported as “less than 0.25%”. Further, the “Anti-Maximal Pentylenetetrazol ED50” value was 13.2 ± 3 mg/kg in data set [2] (IP, 30', 30 min); 26.2 ± 8.1 mg/kg in data set [2] (IP, 90', 90 min); “INACT” in [2] (PO, 30'); 25.8 ± 7 mg/kg in data set [2] (PO, 90', 90 min). Further, the “pH of ethyl alcohol solution diluted with four volumes of water” value in the data set “pH of solution” (hydrochloride, 5 percent (w/v) in 95 percent ethyl alcohol, then diluted) is recorded as 6.1. Further, the “Anti-Maximal Electroshock ED50” value in [3] (IP, 30', 30 min) is 30.5 ± 5.8 mg/kg; in data set [3] (IP, 90'), “INACT”; in data set [3] (setting [11]), “inact”. In addition, the “solubility of hydrochloride in 95 percent ethyl alcohol” value in data set [4] is reported as 5 percent (w/v). Also, the “precipitation on dilution with four volumes of water” value (“precipitation on dilution” for short) in [5] was “no precipitate formed”.
`C[C@H]1[C@H]2Cc3ccccc3[C@]1(C)CCN2CC1CC1` (relative stereo) [Example 1A, racemic 1,2,3,4,5,6-hexahydro-3-cyclopropylmethyl-cis-6,11-dimethyl-2,6-methano-3-benzazocine]: the symptoms result in the data set on monkeys (setting [12]) is “Some ataxia with a decrease in activity”; in the data set on monkeys (25 mg./kg. orally each day for 5 days) it was “more marked decrease in spontaneous activity along with ataxia and salivation”. In addition, the tolerability result in the data set on monkeys (setting [12]) was “well tolerated”. Moreover, the BUN result in the data set on monkeys (oral) was “normal”. Further, the “Blood SGO-T” value in the data set on monkeys (oral) was “normal”. Moreover, in the data set with monkeys (oral), the alkaline phosphatase entry is on record as “normal”. In the data set on monkeys (oral), the body weight entry is recorded as “Some weight loss occurred”. Also, the ED50 in data set [6] (0.5 h, 30 minutes post-medication) amounted to 15 ± 4 mg/kg; in data set [6] (1.5 h, 90 minutes post-medication) it was 37 ± 6 mg/kg; with mice [7] (1 h, oral, sixty minutes after medication, read-out: dose at which 50 percent of the mice had fallen from a 60° inclined screen), 38.2 ± 11 mg/kg; in the data set on mice [7] (ip, intraperitoneal, read-out: ED50, 60° inclined screen), 17.2 mg/kg; in [2] (0.5 h, IP, 30'), 2.3 ± 7 mg/kg; in [2] (0.5 h, PO, 30'), 3.3 ± 0.8 mg/kg. In addition, the ED50 in data set [2] (1.5 h, IP, 90') amounted to 5.3 ± 10 mg/kg; in [2] (1.5 h, PO, 90'), 6.2 ± 1 mg/kg; in [3] (0.5 h, IP, 30') it was 11.2 ± 2 mg/kg; in [3] (0.5 h, PO, 30') it was 26.2 ± 7 mg/kg; in data set [3] (1.5 h, PO, 90') it was 35.5 ± 3 mg/kg. The same compound came in with a solubility in data set [1] (dilute hydrochloric acid) of 10000 µg/mL (≈ 39.2 mM). The “pH of 1 percent solution in dilute hydrochloric acid” value in “pH of solution” (hydrochloride, 0.42 ml. of N/2 hydrochloric acid and 0.58 ml. of water) is recorded as 1.5. The “precipitation on adjusting to pH 7.0” value in data set [8] (1 percent solution, N/10 sodium hydroxide solution, pH 7.0) is “no precipitate formed”. For the same compound, the LD50 at 24 h in “acute toxicity, rat” (setting [13]) worked out at 17 ± 1 mg/kg; in “acute toxicity, rat” (po, P.O., read-out: ALD50), 200 mg/kg; in “acute toxicity, mouse” (ip, I.P.), 65 ± 7 mg/kg; in the data set “acute toxicity, mouse” (iv, I.V.), 20 ± 1 mg/kg; in “acute toxicity, mouse” (po, P.O.), 155 ± 17 mg/kg. Further, the LD50 at 168 h in “acute toxicity, rat” (setting [13]) stood at 17 ± 1 mg/kg; in “acute toxicity, rat” (po, P.O., read-out: ALD50), 200 mg/kg; in “acute toxicity, mouse” (ip, I.P.), 65 ± 7 mg/kg; in “acute toxicity, mouse” (iv, I.V.), 20 ± 1 mg/kg; in the data set “acute toxicity, mouse” (po, P.O.), 155 ± 17 mg/kg. For the same compound, the diuresis result with mice [9] was “significant diuresis”. The urine produced result in the data set on mice [9] is reported as “dilute urine without electrolyte concentration”. The “Anti-Maximal Electroshock ED50” value in data set [3] (IP, 90') is “INACT”. For the same compound, the “toxic signs at high dose” value in the data set on mice [10] (128 mg./kg. p.o.) is “Ataxia, loss of righting reflex, and death occurred”. Besides, the psychomotor activity pattern entry in the data set with mice [10] (8-128 mg./kg. p.o.) was “stimulation at lower doses and depression at high doses”. In addition, the “precipitation on dilution” value in [5] is on record as “a precipitate formed”. Besides, the “psychotomimetic effects in humans” value in the data set on humans is reported as “very few, if any, psychotomimetic effects”. Further, the “central nervous system effects in humans” value in the data set with humans (effective therapeutic analgesic doses) was “only minimal central nervous system effects”. Besides, the “analgesic activity in humans” value with humans is recorded as “strong analgesic”.
As to `C[C@@H]1[C@H]2Cc3ccccc3[C@]1(C)CCN2CC1CC1` (relative stereo) [Example 2, racemic 1,2,3,4,5,6-hexahydro-3-cyclopropylmethyl-trans-6,11-dimethyl-2,6-methano-3-benzazocine], the solubility in [1] (water) was under 2500 µg/mL; in [4], under 10000 µg/mL.
Take `C[C@H]1[C@H]2Cc3ccccc3[C@]1(C)CCN2CC1CC(C)(C)C1` (relative stereo) [Example 5, racemic 1,2,3,4,5,6-hexahydro-3-(3,3-dimethylcyclobutylmethyl)-cis-6,11-dimethyl-2,6-methano-3-benzazocine]: the solubility was 5000 µg/mL (≈ 16.8 mM) in data set [1] (water) and 50000 µg/mL (≈ 168 mM) in [4]. Also, in “pH of solution” (hydrochloride, 0.5 percent), the “pH of 0.5 percent aqueous solution” value is 6.8. The “pH at which a precipitate formed” value in data set [8] is given as 6.8. In data set [5], the “precipitation on dilution” value is “a precipitate formed”.
For the compound `C[C@H]1[C@H]2Cc3ccccc3[C@]1(C)CCN2CC1CCCC1` (relative stereo) [Example 6, racemic 1,2,3,4,5,6-hexahydro-3-cyclopentylmethyl-cis-6,11-dimethyl-2,6-methano-3-benzazocine], the concentration in solution in data set [1] (water) (solubility) came to 10000 µg/mL (≈ 35.3 mM). The ED50 in data set [2] (0.5 h, IP, 30') came out at 11.7 ± 2 mg/kg; in data set [2] (1.5 h, IP, 90'), 8 ± 3 mg/kg. In addition, the “Anti-Maximal Pentylenetetrazol ED50” value in data set [2] (setting [11]) is reported as “INACTIVE”. Further, the “pH of 1 percent aqueous solution” value in “pH of solution” (1 percent solution (Example 26 as dihydrochloride, Example 32 as such, others as hydrochloride)) was 6.2. For the same compound, in data set [8], the “pH at which a precipitate formed” value is given as 6.3. Moreover, the “Anti-Maximal Electroshock ED50” value in data set [3] (one entry spanning PO and IP, 30' and 90') is “INACTIVE”.
Compound `C[C@H]1[C@H]2Cc3ccccc3[C@]1(C)CCN2CCc1c[nH]c2ccccc12` (relative stereo) [Example 30, racemic 1,2,3,4,5,6-hexahydro-3-[2-(3-indolyl)ethyl]-cis-6,11-dimethyl-2,6-methano-3-benzazocine] showed a solubility in data set [1] (water) of under 2500 µg/mL. For the same compound, the “solubility of hydrochloride in 95 percent ethyl alcohol” value in data set [4] is listed as “less than one”.
`C[C@H]1[C@H]2Cc3ccccc3[C@]1(C)CCN2Cc1cncn1C` (relative stereo) [Example 37, racemic 1,2,3,4,5,6-hexahydro-3-(1-methylimidazol-5-yl)methyl-cis-6,11-dimethyl-2,6-methano-3-benzazocine]: the solubility in [1] (water) is under 2500 µg/mL; in [4] it was 50000 µg/mL (≈ 169 mM). In the data set with mice [7] (100 mg./kg. subcutaneously, mice), the “side-effect in the inclined screen test” value was “CNS stimulation”. The “skeletal muscle relaxant activity in the inclined screen test” value in the data set on mice [7] (100 mg./kg. subcutaneously, mice, 30 or 60 minutes) is “active”. Also, in [5], the “precipitation on dilution” value is reported as “precipitated”.
In the case of `CC1C2Cc3ccc(O)cc3C1(C)CCN2CC1CC1` (stereo not shown) [1,2,3,4,5,6-hexahydro-3-cyclopropylmethyl-8-hydroxy-6,11-dimethyl-2,6-methano-3-benzazocine, reference compound], in the data set on humans, the “psychotomimetic effects in humans” value is “significant incidence of psychotomimetic effects” and the “analgesic activity in humans” value is on record as “potent analgesic”.
`C[C@H]1[C@H]2Cc3ccccc3[C@]1(C)CCN2CC1CCCO1` (stereo partly drawn) [Example 28, 1,2,3,4,5,6-hexahydro-3-(tetrahydro-2-furylmethyl)-cis-6,11-dimethyl-2,6-methano-3-benzazocine]: the solubility in data set [1] (water) was under 2500 µg/mL; in data set [4], 50000 µg/mL (≈ 175 mM).

Usually solubility stands for the dissolved amount per volume that the medium holds.
